The values that follow come from patent publication US9636323B2, “Method of treating cancer that overexpresses TopBP1” (Baylor College of Medicine, priority 2014, dated 2017).

Molecules are shown by their SMILES. A value given as a limit tells only on which side of the number the result lay.

For data set [1], the system named is mutp53(R273H) gain of function. Kind of data set: p73 activity reporter (Bax promoter-luciferase) assay in p53-null H1299 cells expressing p73α and mutp53(R273H). Type of data set: cell-based, human. Here is the method:
E2F1 activity reporter assay using a p14^ARF promoter-luciferase plasmid was performed as described (Liu et al. 2003). p53 activity reporter assay was performed by a p21^Cip promoter-luciferase plasmid (Liu et al. 2009). p73 activity reporter assay was performed using a pGL3-Bax promoter-luciferase plasmid (Liu et al. 2011). pRL-TK (Renilla luciferase, Promega) was used in all experiments for controlling transfection efficiency. The firefly and Renilla luciferase activities were measured by Dual-Luciferase Reporter System (Promega), and the firefly luciferase activities were normalized against the Renilla activity. All assays were performed in triplicate.

The test system of data set [2] is p53 targets p21 and Bax in HCT116 cells. Put plainly: Induction of p21 and Bax in isogenic p53+/+ and p53−/− HCT116 cells. Type of data set: cell-based. The note with it: p53+/+ versus p53−/− HCT116.
The next data set relates to MCF7 cells. Put plainly: MTS assay, MCF7. The note with it: increasing concentrations, 5 h, versus MCF10A. Type of data set: cell-based, human. Here is the method:
(§1) Then 50 μl of MTS reagent (CellTiter 96® AQueous One Solution Cell Proliferation Assay, Promega) was added to each well, covered from light and incubated for 1 h at 37.0 incubator to develop purple color. The samples were measured at 490 nm in a plate reader (BioTek Synergy HT) against a blank 48-well plate. Each assay was done in triplicate.

In data set [3] the test system is MDA-MB468 cells. Kind of data set: Caspase 3/7 activity assay, MDA-MB468. Type of data set: cell-based, human. Here is the method: (§2) The apoptosis was measured by Caspase-Glo® 3/7 assay (Promega) following the manufacturer's protocol. The cells were plated in 6-well tissue culture dish (10^4 cells/well) (BD Falcon) in respective media. […] The blank reactions were prepared per direction. Equal volume of Caspase-Glo® 3/7 reagents were applied to each well. A luminometer (Sirius) was used to quantitate luminescence.
(§3) To prepare TopBP1 knockdown stable cell line, MDA-MB468 cells were infected with lentivirus expressing TopBP1 shRNA (Liu et al. 2011) as well as scramble shRNA, separately. The infected cells were grown for 48 h followed by selection with puromycin (2 μg/ml). After selection, the knockdown was confirmed by Western blotting before further experiments. Two different pLKO-shTopBP1 (#1 and #2) constructs (Open Biosystems, RHS4533-NM_007027) were used to deplete TopBP1 in MDA-MB468 cells. Additional two pSuper-shTopBP1 constructs (Liu et al. 2004) were used to knock down TopBP1 in HEK293 cells. Two pSuper-shE2F1 constructs were used to deplete E2F1: shE2F1#1 (described previously (Liu et al. 2004)), and shE2F1#2 (target sequence 5′-[…]-3′). The target sequence for pSuperior-shE2F1 is the same as pSuper-shE2F1#1. To deplete p63, shp63alpha pLKO.1-puro (from Addgene, 19120) was used. TP73 MISSION shRNA (shp73 pLKO.1-puro) was purchased from Sigma (TRCN00002722587).

In data set [4] the test system is MDA-MB468 cells. Put plainly: Colony formation assay. Type of data set: cell-based, human. The note with it: 16 h treatment, then 8 days without drug. How it is done: MDA-MB468 cells were plated in 6-well plates at 200 cells/well. […] Cells were grown in fresh media without drugs for additional 8 days to form colonies, when each colony contained more than 50 cells. Plates were then stained with […] crystal violet (0.5 g Crystal violet, 25 ml methanol and 75 ml H2O). Cell number was counted.

Data set [5] deals with SKOV-3 ovarian cancer cells. Put plainly: MTS assay, SKOV-3. Type of data set: cell-based, human. How it is done: as §1
In the next data set the test system is SKOV-3 cells. Kind of data set: Caspase-Glo 3/7 assay, SKOV-3 transfected with mutp53(R273H). The note with it: cisplatin 20 μM with Calcein AM 5 μM, 20 h. Type of data set: cell-based, human. Here is the method:
as §2

The subject of the next data set is BT549 cells. Put plainly: Trypan blue exclusion viability assay, BT549. Type of data set: cell-based, human. Here is the method: as §3
Data set [6] concerns TopBP1 checkpoint activation (Chk1). Kind of data set: HU-induced Chk1 activation. Type of data set: cell-based. Here is the method:
MDA-MB468 cells were lysed with TNN buffer (Liu et al. 2003). An aliquot of cell lysates was lysed with SDS lysis buffer and the rest of cell lysates were incubated with appropriate antibodies or beads at 4° C. for 3-12 h. Anti-FLAG beads (Sigma) were washed three times with TNN buffer. Immunoprecipitates were fractionated by SDS-PAGE and electro-transferred to Immobilon-P membrane (Millipore). Equal amount of protein loading was validated with Ponceau-S staining. The specific signals were detected by incubating with appropriate antibody. All primary antibodies were used at 1:1000 dilution and horseradish peroxidase (HRP)-conjugated secondary antibodies were used at 1:5000 dilution for immunoblotting. E2F1 (C-20 and KH-95), p53 (FL393), p63 (4A4 and H-129), p73 (H-79), p21 (C-19), Bax (N-20), GST (B-14), c-Myc (A14), Miz1 (H-190), Chk1 (G4), Actin (C-2) and GAPDH (6C5) antibodies were purchased from Santa Cruz. TopBP1 (mouse monoclonal) and Aid antibodies were purchased from BD Transduction Laboratories. TopBP1 (BL893, Rabbit polyclonal) antibody was purchased from Bethyl. Mouse monoclonal anti-phospho-γH2AX was purchased from Millipore. Phospho-Chk1 (Ser345) antibody was purchased from Cell signaling. FLAG (F7425) antibody was purchased from Sigma. Mouse monoclonal anti-p73 (IMG-246) was purchased from IMGENEX.

Data set [7] relates to 4T1 mouse breast tumor cells. Put plainly: Apoptosis in mouse tumor cells. Type of data set: cell-based. How it is done: as §2
The subject of the next data set is Jurkat-T cells. Kind of data set: Caspase 3/7 activation assay, Jurkat-T. Type of data set: cell-based. The note with it: 2.5 μM, 7 hours. Here is the method:
as §2

The test system of a further data set is Hs-578T. The note with it: NCI-DTP database; cited from earlier work.
The next data set has as its system A549. The note with it: NCI-DTP database; cited from earlier work.
A further data set relates to NCI-H460. The note with it: NCI-DTP database; cited from earlier work.
For another data set, the system named is mice. The note with it: cited from earlier work.

By GI50 is commonly meant the concentration that inhibits growth by half. Regarding `CC(=O)OCOC(=O)CN(CC(=O)OCOC(C)=O)Cc1cc2c(cc1OC(C)=O)Oc1cc(OC(C)=O)c(CN(CC(=O)OCOC(C)=O)CC(=O)OCOC(C)=O)cc1C21OC(=O)c2ccccc21` [Calcein AM, Calcein AM (acetoxymethyl ester)], the “inhibition of p73 transcriptional activity by mutp53(R273H)” value in [1] is listed as “blocked”. Also, the “induction of p21 and Bax” value in [2] was “observed on in p53^+/+, but not in p53^−/−”. The “proliferation (MTS)” value is “preferentially inhibited the proliferation” with MCF7 cells; “inhibited the proliferation” in [5] (Calcein AM 5 μM in combination with cisplatin 20 μM, 20 h); “inhibited the proliferation” in [5] (Calcein AM alone, overnight). Further, the “apoptosis (caspase 3/7 activity)” value in the data set on MDA-MB468 cells [3] (2.5 μM overnight) is given as “induced apoptosis”; in the data set on MDA-MB468 cells [3] (0.1 and 0.5 μM, 16 h) it was “not”; in the data set with MDA-MB468 cells [3] (2.5 and 5 μM, 16 h), “induced”. Also, the “effect of Calcein AM on apoptosis (caspase 3/7)” value in the data set on MDA-MB468 cells [3] (TopBP1-depleted cells, 2.5 μM overnight) was “mitigated the effect”. Besides, the “concentration at which inhibition of colony formation was apparent” value in the data set on MDA-MB468 cells [4] is at least 0.1 µM. Besides, the “inhibition of cisplatin-induced apoptosis by overexpressed mutp53(R273H)” value in the data set on SKOV-3 cells was “partially rescued”. Moreover, the “Calcein AM response, viability assay” value in the data set on BT549 cells (E2F1 depleted by two shRNA constructs, 2.5 μM, 20 h) is “attenuated”. For the same compound, the “living cells compared with scrambled shRNA” value in the data set with BT549 cells (p63- and p73-depleted cells, 2 μM, 15 h) was “more living cells”. Further, in data set [6], the “HU-induced Chk1 activation” value was “did not block HU-induced Chk1 activation”. The apoptosis entry in data set [7] is reported as “induced apoptosis”. In addition, the “cell killing (caspase 3/7 activation)” value in the data set with Jurkat-T cells is recorded as “active in killing”. Moreover, the GI50 with Hs-578T is under 400 nM; in the data set on A549, under 1000 nM; in the data set on NCI-H460, under 1000 nM. Also, the “oral LD50” value in the data set on mice (oral) was 17000 mg/kg. In addition, the “percutaneous LD50” value in the data set with mice (percutaneous) is 5000 mg/kg.
